From patent publication US11376271B1, “Methods of ameliorating the effects of alcoholic liver damage” (FULGENT LIFE INC., priority 2021, dated 2022)

How the values were obtained:
male C57BL/6J mice = assay: Tissue NAD+ content after intraperitoneal injection; assay type: in vivo; details: 250 mg/kg intraperitoneal, 4 hours
Protocol: In the below in vivo assays, C57BL/6J male mice (The Jackson Laboratory) (40 days of age) were used. They were kept under standard laboratory conditions with a temperature of 22±1° C., dark/light cycles of 12/12 h, and relative humidity of 55±5%. All animals had free access to food and water, except for indicated fasting periods (and where not indicated for fasting periods of 2 hours before administration).
[…] Specifically, ten 8-week-old male C57BL/6J mice (The Jackson Laboratory) were kept in polycarbonate cages under a 12-h light/dark cycle with free access to food and water. […] Four hours later, the blood samples were collected by cardiac puncture and the mice were executed. Liver, brain, muscle, and adipose tissues were collected, instantly frozen in liquid nitrogen, and then stored at −80° C. until performance of the NAD+ analyses. […] Four hours later, the mice were killed and tissue samples were collected. All animal studies were performed according to the Guidelines for the Care and Use of Experimental Animals. For this NAD+ assay, about 100 mg of frozen tissue was crushed in liquid nitrogen and ultrasonically homogenized in 7% perchloric acid, and then the solution was neutralized and subjected to the NAD+ determination described here.
Data are indicated as mean±SD.

AML12 cells [1] = assay: NAD+/NADH ratio in AML12 cells; details: 1 mM, 6 h, vs control
AML12 cells [2] = assay: Rescue from hydrogen peroxide (HP) genotoxicity: cell survival and NAD+ level; assay type: cell-based; details: 500 μM HP + 250 μM compound, 3 h, AML12 cells
Protocol: Because the increasing extent of NAD+ concentration is of interest, whether NADH can improve the cell survival rate under the stressful conditions of depletion of NAD+ was also assessed. To that end, as genotoxicity can lead to DNA damage, activate poly(ADP-ribose) polymerases and induce NAD+ depletion, genotoxicity was tested. Strong genotoxicity will lead to severe consumption of NAD+ by cells, resulting in cell death. To test genotoxicity, AML12 cells were treated with 500 μM hydrogen peroxide (HP) for 3 hours in the presence or absence of 1 mM NADH, and then the cells were counted and NAD+ was detected in the samples co-treated with NADH (1 mM) or its vehicle. FIG. 4A is a graph comparing the cell survival rate of the HP treated cells, NADH treated cells, and the HP+NADH treated cells relative to a control. And FIG. 4B is a graph comparing the NAD+ level of the HP treated cells, NADH treated cells, and the HP+NADH treated cells relative to a control. The cell survival rates and cellular NAD+ levels in FIGS. 4A-B are expressed as mean±SD.
The effects of NADH and NMN at a lower concentration (250 μM) on AML12 cells was also tested in a separate assay. Specifically, AML12 cells were treated with 500 μM HP in the presence or absence of 250 μm NADH or NMN for 3 h. FIG. 4C is a graph comparing the cell survival rate of the HP treated cells, HP+NADH treated cells, and the HP+NMN treated cells relative to a control. And FIG. 4D is a graph comparing the NAD+ level of the HP treated cells, HP+NADH treated cells, and the HP+NMN treated cells relative to a control. The cell survival rate and cellular NAD+ levels in FIGS. 4C-D are expressed as mean±SD.

## NC(=O)c1ccc[n+]([C@@H]2O[C@H](COP(=O)([O-])O)[C@@H](O)[C@H]2O)c1 [NMN, nicotinamide mononucleotide, reference compound]
Male C57BL/6J mice
  increase of the concentration of NAD+ in the liver: 170%
AML12 cells [1]
  NAD+/NADH ratio: significantly increase
AML12 cells [2]
  effect on NAD+ levels under HP: much worse than that of NADH
  effect on cell survival under HP: much worse than that of NADH
